Reference: ChEMBL document CHEMBL1275553, “Pyrosequencing to detect mutations in FKS1 that confer reduced echinocandin susceptibility in Candida albicans” (2008)
In brackets after ≈: the same amount, converted by molar mass. Starred links: 1 amine or outer side, 2 acyl side, 3 side chain; linkers in the order of their positions; H or OH if unused. Positions of bridges follow the written chain, without caps; N, C: chain ends. Non-standard residues stand in square brackets, D forms with d. Residues, ends and D or L forms follow the SMILES beside them. *: point of attachment. hTyr(3S-OH,4S-OH,3'-OSO3H) = N[C@H](C(=O)O)[C@H](O)[C@@H](O)c1ccc(O)c(OS(=O)(=O)O)c1; pTerphenylCO(4''-OnC5H11) = CCCCCOc1ccc(-c2ccc(-c3ccc(C(=O)*)cc3)cc2)cc1; Orn(4R-OH,5R-OH) = O=C([C@H](C[C@@H](O)[C@@H](O)N[*:3])N[*:1])[*:2]; hTyr(3S-OH,4S-OH) = N[C@H](C(=O)O)[C@H](O)[C@@H](O)c1ccc(O)cc1; Pro(3S-OH,4S-Me) = C[C@H]1CN[C@H](C(=O)O)[C@H]1O; X1 = CCCCCOc1ccc(-c2cc(-c3ccc(C(=O)*)cc3)no2)cc1; Gln(3R-OH) = NC(=O)C[C@@H](O)[C@H](N)C(=O)O; Hyp = O=C(O)[C@@H]1C[C@@H](O)CN1

Assays:
Assay type in all cases: functional
[1] = system: Candida albicans; test: Antifungal activity against Candida albicans 53264 expressing FKS1 F645P mutant after 24 hrs by broth microdilution method; conditions: Candida albicans, 53264, 24 h
[2] = system: Candida albicans; test: Antifungal activity against Candida albicans 4254 expressing FKS1 F641S mutant after 24 hrs by broth microdilution method; conditions: Candida albicans, 4254, 24 h
[3] = system: Candida albicans; test: Antifungal activity against Candida albicans 43001 expressing FKS1 F641S mutant after 24 hrs by broth microdilution method; conditions: Candida albicans, 43001, 24 h
[4] = system: Candida albicans; test: Antifungal activity against Candida albicans 2762 expressing FKS1 F641S mutant after 24 hrs by broth microdilution method in presence of 50% human serum; conditions: Candida albicans, 2762, 24 h
[5] = system: Candida albicans; test: Antifungal activity against Candida albicans 41301 expressing FKS1 F641S mutant after 24 hrs by broth microdilution method in presence of 50% human serum; conditions: Candida albicans, 41301, 24 h
[6] = system: Candida albicans; test: Antifungal activity against Candida albicans 2762 expressing FKS1 F641S mutant after 24 hrs by broth microdilution method; conditions: Candida albicans, 2762, 24 h
[7] = system: Candida albicans; test: Antifungal activity against Candida albicans 41509 expressing FKS1 F641S mutant after 24 hrs by broth microdilution method; conditions: Candida albicans, 41509, 24 h
[8] = system: Candida albicans; test: Antifungal activity against Candida albicans 5415 expressing FKS1 F645P/H mutant after 24 hrs by broth microdilution method; conditions: Candida albicans, 5415, 24 h
[9] = system: Candida albicans; test: Antifungal activity against Candida albicans 41509 expressing FKS1 F641S mutant after 24 hrs by broth microdilution method in presence of 50% human serum; conditions: Candida albicans, 41509, 24 h
[10] = system: Candida albicans; test: Antifungal activity against Candida albicans 4715 expressing FKS1 F641S mutant after 24 hrs by broth microdilution method in presence of 50% human serum; conditions: Candida albicans, 4715, 24 h
[11] = system: Candida albicans; test: Antifungal activity against Candida albicans 42286 expressing wild type FKS1 after 24 hrs by broth microdilution method in presence of 50% human serum; conditions: Candida albicans, 42286, 24 h
[12] = system: Candida albicans; test: Antifungal activity against Candida albicans 4254 expressing FKS1 F641S mutant after 24 hrs by broth microdilution method in presence of 50% human serum; conditions: Candida albicans, 4254, 24 h
[13] = system: Candida albicans; test: Antifungal activity against Candida albicans 4715 expressing FKS1 F641S mutant after 24 hrs by broth microdilution method; conditions: Candida albicans, 4715, 24 h
[14] = system: Candida albicans; test: Antifungal activity against Candida albicans 32746 expressing FKS1 F641S mutant after 24 hrs by broth microdilution method in presence of 50% human serum; conditions: Candida albicans, 32746, 24 h
[15] = system: Candida albicans; test: Antifungal activity against Candida albicans 53264 expressing FKS1 F645P mutant after 24 hrs by broth microdilution method in presence of 50% human serum; conditions: Candida albicans, 53264, 24 h
[16] = system: Candida albicans; test: Antifungal activity against Candida albicans 5415 expressing FKS1 F645P/H mutant after 24 hrs by broth microdilution method in presence of 50% human serum; conditions: Candida albicans, 5415, 24 h
[17] = system: Candida albicans; test: Antifungal activity against Candida albicans SC5314 expressing wild type FKS1 after 24 hrs by broth microdilution method in presence of 50% human serum; conditions: SC5314, 24 h
[18] = system: Candida albicans; test: Antifungal activity against Candida albicans SC5314 expressing wild type FKS1 after 24 hrs by broth microdilution method; conditions: SC5314, 24 h
[19] = system: Candida albicans; test: Antifungal activity against Candida albicans 43001 expressing FKS1 F641S mutant after 24 hrs by broth microdilution method in presence of 50% human serum; conditions: Candida albicans, 43001, 24 h
[20] = system: Candida albicans; test: Antifungal activity against Candida albicans 42379 expressing FKS1 F645P mutant after 24 hrs by broth microdilution method in presence of 50% human serum; conditions: Candida albicans, 42379, 24 h
[21] = system: Candida albicans; test: Antifungal activity against Candida albicans 32746 expressing FKS1 F641S mutant after 24 hrs by broth microdilution method; conditions: Candida albicans, 32746, 24 h
[22] = system: Candida albicans; test: Antifungal activity against Candida albicans 42996 expressing FKS1 F641S mutant after 24 hrs by broth microdilution method; conditions: Candida albicans, 42996, 24 h
[23] = system: Candida albicans; test: Antifungal activity against Candida albicans 42286 expressing wild type FKS1 after 24 hrs by broth microdilution method; conditions: Candida albicans, 42286, 24 h
[24] = system: Candida albicans; test: Antifungal activity against Candida albicans 42379 expressing FKS1 F645P mutant after 24 hrs by broth microdilution method; conditions: Candida albicans, 42379, 24 h
[25] = system: Candida albicans; test: Antifungal activity against Candida albicans 42996 expressing FKS1 F641S mutant after 24 hrs by broth microdilution method in presence of 50% human serum; conditions: Candida albicans, 42996, 24 h
[26] = system: Candida albicans; test: Antifungal activity against Candida albicans 41301 expressing FKS1 F641S mutant after 24 hrs by broth microdilution method; conditions: Candida albicans, 41301, 24 h

CCCCCOc1ccc(-c2ccc(-c3ccc(C(=O)N[C@H]4C[C@@H](O)[C@@H](O)NC(=O)[C@@H]5[C@@H](O)[C@@H](C)CN5C(=O)[C@H]([C@@H](C)O)NC(=O)[C@H]([C@H](O)[C@@H](O)c5ccc(O)cc5)NC(=O)[C@@H]5C[C@@H](O)CN5C(=O)[C@H]([C@@H](C)O)NC4=O)cc3)cc2)cc1 [ANIDULAFUNGIN] ({pTerphenylCO(4''-OnC5H11)}-[Orn(4R-OH,5R-OH)]T[Hyp][hTyr(3S-OH,4S-OH)]T[Pro(3S-OH,4S-Me)]; lactam 1-C)
MIC [1]: 1 µg/mL (≈ 0.877 µM) | MIC [2]: 0.125 µg/mL (≈ 0.11 µM) | MIC [3]: 0.5 µg/mL (≈ 0.438 µM) | MIC [4]: 4 µg/mL | MIC [5]: 8 µg/mL | MIC [6]: 0.5 µg/mL (≈ 0.438 µM) | MIC [7]: 0.5 µg/mL (≈ 0.438 µM) | MIC [8]: 1 µg/mL (≈ 0.877 µM) | MIC [9]: 8 µg/mL | MIC [10]: 8 µg/mL | MIC [11]: 1 µg/mL | MIC [12]: 2 µg/mL | MIC [13]: 0.25 µg/mL (≈ 0.219 µM) | MIC [14]: 8 µg/mL | MIC [15]: 32 µg/mL | MIC [16]: 16 µg/mL | MIC [17]: 0.5 µg/mL | MIC [18]: 0.03 µg/mL (≈ 0.0263 µM) | MIC [19]: 4 µg/mL | MIC [20]: 8 µg/mL | MIC [21]: 0.25 µg/mL (≈ 0.219 µM) | MIC [22]: 0.125 µg/mL (≈ 0.11 µM) | MIC [23]: 0.125 µg/mL (≈ 0.11 µM) | MIC [24]: 0.5 µg/mL (≈ 0.438 µM) | MIC [25]: 4 µg/mL | MIC [26]: 0.25 µg/mL (≈ 0.219 µM)

CC[C@H](C)C[C@H](C)CCCCCCCCC(=O)N[C@H]1C[C@@H](O)[C@@H](NCCN)NC(=O)[C@@H]2[C@@H](O)CCN2C(=O)[C@H]([C@H](O)CCN)NC(=O)[C@H]([C@H](O)[C@@H](O)c2ccc(O)cc2)NC(=O)[C@@H]2C[C@@H](O)CN2C(=O)[C@H]([C@@H](C)O)NC1=O [CASPOFUNGIN]
MIC [1]: 4 µg/mL (≈ 3.66 µM) | MIC [2]: 2 µg/mL (≈ 1.83 µM) | MIC [3]: 4 µg/mL (≈ 3.66 µM) | MIC [4]: 8 µg/mL | MIC [5]: 8 µg/mL | MIC [6]: 4 µg/mL (≈ 3.66 µM) | MIC [7]: 4 µg/mL (≈ 3.66 µM) | MIC [8]: 8 µg/mL (≈ 7.32 µM) | MIC [9]: 8 µg/mL | MIC [10]: 8 µg/mL | MIC [11]: 4 µg/mL | MIC [12]: 4 µg/mL | MIC [13]: 2 µg/mL (≈ 1.83 µM) | MIC [14]: 4 µg/mL | MIC [15]: > 32 µg/mL | MIC [16]: 32 µg/mL | MIC [17]: 0.25 µg/mL | MIC [18]: 0.125 µg/mL (≈ 0.114 µM) | MIC [19]: 8 µg/mL | MIC [20]: > 32 µg/mL | MIC [21]: 4 µg/mL (≈ 3.66 µM) | MIC [22]: 4 µg/mL (≈ 3.66 µM) | MIC [23]: 2 µg/mL (≈ 1.83 µM) | MIC [24]: 8 µg/mL (≈ 7.32 µM) | MIC [25]: 8 µg/mL | MIC [26]: 4 µg/mL (≈ 3.66 µM)

CCCCCOc1ccc(-c2cc(-c3ccc(C(=O)N[C@H]4C[C@@H](O)[C@@H](O)NC(=O)[C@@H]5[C@@H](O)[C@@H](C)CN5C(=O)[C@H]([C@H](O)CC(N)=O)NC(=O)[C@H]([C@H](O)[C@@H](O)c5ccc(O)c(OS(=O)(=O)O)c5)NC(=O)[C@@H]5C[C@@H](O)CN5C(=O)[C@H]([C@@H](C)O)NC4=O)cc3)no2)cc1 [MICAFUNGIN] (X1-[Orn(4R-OH,5R-OH)]T[Hyp][hTyr(3S-OH,4S-OH,3'-OSO3H)][Gln(3R-OH)][Pro(3S-OH,4S-Me)]; lactam 1-C)
MIC [1]: 4 µg/mL (≈ 3.15 µM) | MIC [2]: 0.5 µg/mL (≈ 0.394 µM) | MIC [3]: 2 µg/mL (≈ 1.57 µM) | MIC [4]: 16 µg/mL | MIC [5]: 16 µg/mL | MIC [6]: 1 µg/mL (≈ 0.787 µM) | MIC [7]: 0.5 µg/mL (≈ 0.394 µM) | MIC [8]: 1 µg/mL (≈ 0.787 µM) | MIC [9]: 32 µg/mL | MIC [10]: 16 µg/mL | MIC [11]: 8 µg/mL | MIC [12]: 8 µg/mL | MIC [13]: 1 µg/mL (≈ 0.787 µM) | MIC [14]: 16 µg/mL | MIC [15]: > 32 µg/mL | MIC [16]: 32 µg/mL | MIC [17]: 1 µg/mL | MIC [18]: 0.06 µg/mL (≈ 0.0472 µM) | MIC [19]: 16 µg/mL | MIC [20]: > 32 µg/mL | MIC [21]: 1 µg/mL (≈ 0.787 µM) | MIC [22]: 1 µg/mL (≈ 0.787 µM) | MIC [23]: 1 µg/mL (≈ 0.787 µM) | MIC [24]: 4 µg/mL (≈ 3.15 µM) | MIC [25]: 32 µg/mL | MIC [26]: 0.5 µg/mL (≈ 0.394 µM)
